Data from paper PMC12040169 (PLOS Biology, 2025).

Assay: in vitro
Settings: human, hela cells, % viability

Point of comparison: `O=C(N[C@H]1CCN2C(=O)N(c3cccc4nsnc34)C(=O)[C@@H]2C1)c1cccs1` [CBK289543], viability at 28.5 h, 10 µM 87%. Against it:
- C[C@H]1[C@@H]2[C@@H](O)C([C@H](C)C(=O)N3CCCC3)CC[C@@]2(C)CC[C@@H]1NC(=O)c1ccccc1 (some centres unmarked) [CBK289441] — higher, 106%
- CCN(CC)C(=O)[C@@H](C)C1CC[C@@]2(C)CC[C@H](NC(=O)C3CC3)[C@@H](C)[C@@H]2[C@H]1O (some centres unmarked) [CBK289443] — higher, 97.5%
- C[C@H]1[C@@H]2[C@@H](O)C([C@H](C)C(=O)NCc3ccccn3)CC[C@@]2(C)CC[C@@H]1NC(=O)C1CC1 (some centres unmarked) [CBK289445] — higher, 97.2%
- C[C@H]1[C@@H]2[C@@H](O)C([C@H](C)C(=O)N3CCCC3)CC[C@@]2(C)CC[C@@H]1NC(=O)c1ccncc1 (some centres unmarked) [CBK289450] — higher, 94.8%
- COCCC(=O)N[C@H]1CC[C@]2(C)CCC([C@H](C)C(=O)N3CCC(C)CC3)[C@H](O)[C@H]2[C@@H]1C (some centres unmarked) [CBK289451] — higher, 103%
- CCNC(=O)N[C@H]1CC[C@]2(C)CCC([C@H](C)C(=O)N3CCCCC3)[C@H](O)[C@H]2[C@@H]1C (some centres unmarked) [CBK289455] — lower, 84.7%
- COCCNC(=O)[C@@H](C)C1CC[C@@]2(C)CC[C@H](NS(C)(=O)=O)[C@@H](C)[C@@H]2[C@H]1O (some centres unmarked) [CBK289457] — higher, 93.5%
- COC(=O)CO[C@@H]1CO[C@H]2[C@@H]1OC[C@@H]2NC(=S)Nc1ccccc1 [CBK289459] — higher, 88.3%
- CC(=O)c1ccc(NC(=O)N[C@H]2CO[C@H]3[C@@H]2OC[C@H]3OCC(N)=O)cc1 [CBK289460] — higher, 117%
- CO[C@@H]1CO[C@H]2[C@@H]1OC[C@@H]2NC(=O)Nc1cccc(C(F)(F)F)c1 [CBK289461] — higher, 112%
- CO[C@@H]1CO[C@H]2[C@@H]1OC[C@@H]2NC(=O)Nc1ccc(C(C)=O)cc1 [CBK289462] — higher, 106%
- O=C(Nc1ccccc1)N[C@H]1CO[C@H]2[C@@H]1OC[C@H]2OC(=O)Nc1ccccc1 [CBK289465] — higher, 89.1%
- C=CCNC(=O)N[C@H]1CO[C@H]2[C@@H]1OC[C@H]2OC(=O)Nc1ccccc1 [CBK289466] — higher, 115%
- O=C(NC1CCCCC1)O[C@@H]1CO[C@H]2[C@@H]1OC[C@@H]2NS(=O)(=O)Cc1ccccc1 [CBK289467] — higher, 87.8%
- CS(=O)(=O)N[C@H]1CO[C@H]2[C@@H]1OC[C@H]2OC(=O)Nc1cccc2ccccc12 [CBK289469] — higher, 89%
- CCNC(=O)O[C@@H]1CO[C@H]2[C@@H]1OC[C@@H]2NC(=O)Nc1ccc(C(C)=O)cc1 [CBK289473] — higher, 93.5%
- CCNC(=O)O[C@@H]1CO[C@H]2[C@@H]1OC[C@@H]2NS(=O)(=O)c1ccccc1C#N [CBK289474] — higher, 87.6%
- CC(=O)c1ccc(NC(=O)O[C@@H]2CO[C@H]3[C@@H]2OC[C@@H]3NC(=O)C2CCC2)cc1 [CBK289475] — higher, 89.3%
- NC(=O)CO[C@@H]1CO[C@H]2[C@@H]1OC[C@@H]2NCc1ccccc1 [CBK289479] — higher, 112%
- Cc1ccc(S(=O)(=O)N[C@H]2CO[C@H]3[C@@H]2OC[C@@H]3n2nnnc2Oc2ccccc2)cc1 [CBK289485] — lower, 82.4%
- O=C(N[C@H]1CO[C@H]2[C@@H]1OC[C@@H]2n1nnnc1Oc1ccc(-n2ccnc2)cc1)c1ccco1 [CBK289486] — higher, 91.9%
- O=C(Nc1ccccc1)N[C@H]1CO[C@H]2[C@@H]1OC[C@H]2OCc1ccccc1 [CBK289488] — higher, 109%
- COCc1cn([C@H]2CO[C@H]3[C@@H]2OC[C@H]3OC)nn1 [CBK289490] — higher, 89.9%
- COC(=O)c1cn([C@H]2CO[C@H]3[C@@H]2OC[C@H]3O)nn1 [CBK289491] — higher, 87.5%
- CN(C)Cc1cn([C@H]2CO[C@H]3[C@@H]2OC[C@@H]3NC(=O)NC2CCCCC2)nn1 [CBK289493] — higher, 88.9%
- COCc1cn([C@H]2CO[C@H]3[C@@H]2OC[C@@H]3NC(=O)c2ccc(OC)cc2)nn1 [CBK289494] — higher, 115%
- COC(=O)c1cn([C@H]2CO[C@H]3[C@@H]2OC[C@@H]3NC(=O)C2CCCCC2)nn1 [CBK289496] — higher, 98.4%
- COC(=O)c1cn([C@H]2CO[C@H]3[C@@H]2OC[C@@H]3NC(=O)NC2CCCCC2)nn1 [CBK289499] — lower, 82.4%
- COC(=O)c1cn([C@H]2CO[C@H]3[C@@H]2OC[C@@H]3NC(=O)Nc2cccc(C(F)(F)F)c2)nn1 [CBK289501] — lower, 78.9%
- N[C@H]1CO[C@H]2[C@@H]1OC[C@@H]2n1cc(-c2ccccc2)nn1 [CBK289502] — lower, 81.6%
- Cc1ccc(C(=O)N[C@H]2CO[C@H]3[C@@H]2OC[C@@H]3n2cc(-c3ccccc3)nn2)cc1 [CBK289504] — lower, 81.4%
- O=S(=O)(N[C@H]1CO[C@H]2[C@@H]1OC[C@@H]2n1cc(-c2ccccn2)nn1)c1cccs1 [CBK289508] — higher, 88.7%
- O=C(NC1CCCCC1)N[C@H]1CO[C@H]2[C@@H]1OC[C@@H]2n1cc(CC2CCCCC2)nn1 [CBK289510] — lower, 75.2%
- c1c(CC2CCCCC2)nnn1[C@H]1CO[C@H]2[C@@H]1OC[C@@H]2NCC1CC1 [CBK289511] — higher, 99.1%
- O=C(Nc1ccccc1)O[C@@H]1CO[C@H]2[C@@H]1OC[C@@H]2Nc1nccc(-c2cccs2)n1 [CBK289513] — higher, 97.8%
- O=C(NC1CCCCC1)O[C@@H]1CO[C@H]2[C@@H]1OC[C@@H]2Nc1nccc(-c2cccs2)n1 [CBK289514] — higher, 87.4%
- CN(C)C(=O)CO[C@@H]1CO[C@H]2[C@@H]1OC[C@@H]2Nc1nccc(-c2cccs2)n1 [CBK289515] — higher, 109%
- CS(=O)(=O)N[C@H]1CO[C@H]2[C@@H]1OC[C@@H]2Nc1nccc(-c2cccs2)n1 [CBK289519] — higher, 92%
- CC(C)CNC(=S)N[C@H]1CO[C@H]2[C@@H]1OC[C@@H]2Nc1nccc(C(C)(C)C)n1 [CBK289523] — higher, 90.9%
- CC(C)(C)c1ccnc(N[C@H]2CO[C@H]3[C@@H]2OC[C@@H]3NCc2ccccn2)n1 [CBK289524] — lower, 86.6%
- CCNC(=O)N[C@H]1CO[C@H]2[C@@H]1OC[C@@H]2Nc1nccc(-c2ccc(OC)cc2)n1 [CBK289528] — higher, 89.3%
- COc1ccccc1-c1ccnc(N[C@H]2CO[C@H]3[C@@H]2OC[C@@H]3NC(=O)C2CCCCC2)n1 [CBK289529] — higher, 94.8%
- CC(C)(C)C(=O)N[C@H]1CO[C@H]2[C@@H]1OC[C@@H]2Nc1nccc(C2CCCC2)n1 [CBK289530] — higher, 115%
- O=C(NC1CCCCC1)N[C@H]1CO[C@H]2[C@@H]1OC[C@@H]2Nc1nccc(C2CCCC2)n1 [CBK289531] — lower, 82.7%
- CN(C)C(=O)CO[C@@H]1CO[C@H]2[C@@H]1OC[C@@H]2Nc1nccc(-c2cccc(F)c2)n1 [CBK289533] — higher, 87.9%
- CC(C)CCN[C@H]1CO[C@H]2[C@@H]1OC[C@@H]2n1nnnc1-c1ccccc1 [CBK289537] — higher, 88.1%
- CC(C)NC(=O)N[C@H]1CCN2C(=O)N(c3ccc(F)c(Cl)c3)C(=O)[C@@H]2C1 [CBK289540] — lower, 83.1%
- O=C(N[C@H]1CCN2C(=O)N(c3cccc4nsnc34)C(=O)[C@@H]2C1)c1ccnc(Cl)c1 [CBK289545] — higher, 91.2%
- CSCC(=O)N[C@H]1CCN2C(=O)N(c3cccc(C(C)=O)c3)C(=O)[C@@H]2C1 [CBK289546] — higher, 90.6%
- COCC(=O)N[C@H]1CCN2C(=O)c3cc(-c4ccccc4F)ccc3NC(=O)[C@@H]2C1 [CBK289553] — higher, 95.6%
- CC(C)C[C@H]1NC(=O)[C@@H]2C[C@@H](NC(=O)CS(=O)(=O)c3ccccc3)CCN2C1=O [CBK289554] — higher, 89.1%
- COc1cc(SC)ccc1C(=O)N[C@H]1CCN2C(=O)[C@@H](CC(=O)O)NC(=O)[C@@H]2C1 [CBK289555] — higher, 108%
- O=C(N[C@H]1CCN2C(=O)N(c3ccc(Br)cc3)C(=O)[C@@H]2C1)c1cccnc1 [CBK289557] — higher, 104%
- COc1ccc(-c2ccc3c(c2)C(=O)N2CC[C@H](N)C[C@H]2C(=O)N3)c(OC)c1 [CBK289560] — higher, 104%
- COCC(=O)N[C@H]1CCN2C(=O)c3cc(-c4cccc(C)c4C)ccc3NC(=O)[C@@H]2C1 [CBK289562] — higher, 90.7%
- O=C(N[C@H]1CCN2C(=O)c3cc(-c4ccsc4)ccc3NC(=O)[C@@H]2C1)c1cccs1 [CBK289563] — higher, 103%
- CNCC(=O)N[C@H]1CCN2C(=O)c3ccc(Cl)cc3NC(=O)[C@@H]2C1 [CBK289566] — lower, 83.6%
- C=CCNC(=O)N[C@H]1CCN2C(=O)c3ccccc3NC(=O)[C@@H]2C1 [CBK289568] — higher, 102%
- C=CCNC(=O)N[C@H]1CCN2C(=O)c3ccc(Cl)cc3NC(=O)[C@@H]2C1 [CBK289569] — higher, 95.9%
- C[C@]1(CO)[C@H]2Cc3sc(-c4ccccc4)nc3[C@@H](CC(=O)O)[C@]2(C)CC[C@H]1O [CBK289572] — lower, 84.5%
- COC[C@@H]1OC[C@@]2(C)C3CC[C@@H](O)[C@@H](CC(=O)N4CCCCC4)[C@]3(C)CC[C@H]2O1 (some centres unmarked) [CBK289573] — higher, 88.3%
- COC[C@@H]1OC[C@@]2(C)C3CC[C@@H](O)[C@@H](CC(=O)NCc4ccccc4)[C@]3(C)CC[C@H]2O1 (some centres unmarked) [CBK289574] — lower, 79.1%
- C[C@]1(CO)C2CC[C@H]3OC(=O)C[C@H]3[C@]2(C)CC[C@H]1OC(=O)Nc1ccccc1 (some centres unmarked) [CBK289577] — lower, 84.5%
- CC(C)NC(=O)N1CCN2C(=O)N(c3ccccc3)C(=O)[C@@H]2C1 [CBK289579] — higher, 99.4%
- O=C(CS(=O)(=O)c1ccccc1)N1CCN2C(=O)N(C3CCCCC3)C(=O)[C@H]2C1 [CBK289580] — higher, 89.6%
- O=C1Nc2ccc(Br)cc2C(=O)N2CCNC[C@H]12 [CBK289583] — lower, 85.1%
- O=C1Nc2ccc(-c3cccc(C(F)(F)F)c3)cc2C(=O)N2CCN(C(=O)C3CC3)C[C@H]12 [CBK289585] — lower, 79.4%

Same assay, conditions: human, hela cells, % viability, bulk resorufin, single well

Point of comparison: `O=C(N[C@H]1CCN2C(=O)N(CCCl)C(=O)[C@@H]2C1)c1cccs1` [CBK289542], viability at 28.5 h, 10 µM 90.8%. Against it:
- Cc1nnsc1C(=O)N[C@H]1CCN2C(=O)N(CCCl)C(=O)[C@@H]2C1 [CBK289550] — higher, 95.6%
- O=C(N[C@H]1CCN2C(=O)N(CCCl)C(=O)[C@@H]2C1)c1ccncc1 [CBK289551] — lower, 88.3%
